Data published in US20190055267A1, “ORGANOTRIFLUOROBORATE MIMICS OF AMINO ACIDS AND USES THEREOF” (The United States of America, as represented by the …, priority 2015, published 2019).
Like-named read-outs stand apart in the source and are kept apart here.

What was measured:
[1] = Solvolysis of the BF3 moiety in phosphate buffer; assay type: physicochemical; details: for t1/2/min: half-life in phosphate buffer at pH 7.4; for pKB-F: pK of the first fluorine of the BF3− moiety; for k (solv)/min^−1: rate of solvolysis, phosphate buffer pH 7.4
Excerpt: See also, Liu et al., Chem. Eur. J., 2015, 21:3924-8, incorporated herein by reference in its entirety.

[2] = COOH group of the corresponding amino acid; cited from earlier work
[3] = tested on: U87MG cells; experiment: In vitro competitive inhibition of boramino acid uptake by natural amino acids and transporter inhibitors; set-up: inhibition: dose or concentration left out as unconfirmed; details: for inhibition / inhibition at 25000 µM: Homo sapiens, U-87 MG, 1 h; for inhibition: read-out: inhibition of uptake of 18F-Leu-BF3
Method: The U87MG cells were in Dulbecco modified Eagle medium and Minimum Essential Medium under a humidified atmosphere with 5% CO2 at 37° C. The culture media was supplemented with 10% fetal bovine serum, 100 U/mL penicillin, and 100 μg/mL streptomycin. […] Prior to incubation, the cells were washed with phosphate-buffered saline (PBS). […] The cells were then washed 3 times with ice-cold PBS, quenched with 0.1 M of NaOH and the cell-bound radioactivity was counted using a gamma counter. Uptake is defined as percentage of added radioactive dose (% AD).
The control is incubation with BAA only without competitor.

[4] = tested on: UM22B cells; experiment: Competitive inhibition assay of 18F-Leu-BF3 uptake; assay type: cell-based; details: 60 min incubation
Method: To study the specificity of BAA transportation, a competitive inhibition assay was performed using UM22B cells in the presence of natural amino acid and transporter inhibitor.

[5] = tested on: amino acid transporters; details: natural amino acid, comparison value; read-out: KM/μM, AA; cited from earlier work
[6] = read-out: inhibition of uptake of 18F-Phe-BF3
[7] = read-out: inhibition of uptake of 18F-Ala-BF3
[8] = read-out: inhibition of uptake of 18F-Pro-BF3
[9] = U87MG cells, competitor at 25 mM, 60 min incubation

Row | Compound | t1/2/min [1] | pKB-F [1] | k (solv)/min^−1 [1] | pka of corres. COOH [2] | inhibition [3] | inhibition at 25000 µM [3, 6] | inhibition at 25000 µM [3, 7] | also measured
1 | C[C@H]([NH3+])[B-](F)(F)F [Ala-BF3] | 2.351 days | 3.6895 | 0.0002044 min⁻¹ | 2.35 |  |  |  | 
2 | NC1(C(=O)O)CC2CCC1C2 (stereo not drawn) [BCH, 2-amino-2-norbornanecarboxylic acid] |  |  |  |  | 77.4% | 72.1% |  | inhibition of uptake of 18F-Leu-BF3 ([3]; U87MG cells, BCH with sodium-free medium, 60 min incubation): 83.0%; inhibition of cell uptake of 18F-Leu-BF3 [4]: 83.0%
3 | C[C@H](N)C(=O)O [L-Alanine] |  |  |  |  | 38.9% | 60.3% | ~90% | Km [5]: 370 µM
4 | N=C(N)NCCC[C@H](N)C(=O)O [L-Arginine] |  |  |  |  | 23% | 42.6% | 58.2% | inhibition at 25000 µM [3, 8]: 15.6%
5 | N[C@@H](CCC(=O)O)C(=O)O [L-Glutamate] |  |  |  |  |  |  |  | inhibition of uptake of 18F-Ala-BF3 [3, 9]: 50.3%; inhibition of uptake of 18F-Phe-BF3 [3, 9]: 13.0%; inhibition of uptake of 18F-Pro-BF3 [3, 9]: 0.2%
6 | CC(C)C[C@H](N)C(=O)O [L-leucine] |  |  |  |  | ~98% |  |  | inhibition of cell uptake of 18F-Leu-BF3 [4]: 94.7%; Km [5]: 19.7 ± 2.4 µM
7 | N[C@@H](Cc1ccccc1)C(=O)O [L-phenylalanine] |  |  |  |  |  | ~80% | 71% | inhibition at 25000 µM [3, 8]: 0.1%; Km [5]: 18.7 ± 4.1 µM
8 | CC(C)C[C@H]([NH3+])[B-](F)(F)F [Leu-BF3] | 2.51 days | 3.7181 | 0.0001914 min⁻¹ | 2.33 |  |  |  | 
9 | CNC(C)(C)C(=O)O [MeAIB, 2-methylaminoisobutyric acid] |  |  |  |  | 24.5% | 17.6% | 39.3% | inhibition at 25000 µM [3, 8]: 39.3%
10 | CSCC[C@H]([NH3+])[B-](F)(F)F [Met-BF3] | 4.851 days | 4.0041 | 9.906e-05 min⁻¹ | 2.13 |  |  |  | 
11 | [NH3+]C(Cc1ccccc1)[B-](F)(F)F (stereo not drawn) [Phe-BF3] | 3.852 days | 3.904 | 0.0001247 min⁻¹ | 2.2 |  |  |  | 
